Target: T1, human cathepsin B (Homo sapiens, UniProt P07858)
T1 construct: Cathepsin B purified from human liver (Sigma-Aldrich, St. Louis, MO, USA); purchased Sigma-Aldrich; host or cells: human liver
Assay: Fluorogenic cathepsin-cleavage assay (Z-RR-AMC)
Type: biochemical
Settings: recombinant cathepsin B, in vitro
Text: The fluorogenic cathepsin-cleavage assay was done as previously described using the cathepsin B cleavage substrate Z-Arg-Arg-7-amido-4-methylcoumarin hydrochloride (Z-RR-AMC; Sigma-Aldrich, St. Louis, MO, USA) and human cathepsin B with or without the cathepsin inhibitor CA-074Me (EMD Millipore, Burlington, MA, USA).

CCCNC(=O)[C@H]1O[C@@H]1C(=O)N[C@H](C(=O)N1CCC[C@H]1C(=O)OC)[C@@H](C)CC [CA-074Me]
inhibition of cathepsin B cleavage of fluorogenic reporter substrate: blocked reporter substrate cleavage

— paper PMC6719084, “Activating the Intrinsic Pathway of Apoptosis Using BIM BH3 Peptides Delivered by Peptide Amphiphiles with Endosomal Release” (Materials, 2019)
